According to ChEMBL document CHEMBL1201862, “PubChem BioAssay data set” (2004):
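Cultured in 96-well plates, cells were exposed to test compound for 48 hours across five concentrations. GI50 = concentration required for 50% inhibition of growth.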 Activity calls are given as the source filed them. Rule as the data show it: active = GI50 up to about 1.1 µM and inactive = higher.

Legend:
Experiment in all cases: DTP human tumour cell line panel, 48 h
786-0 = test system: 786-0
SF-539 = test system: SF-539
SNB-78 = test system: SNB-78
SK-MEL-5 = test system: SK-MEL-5
EKVX = test system: EKVX
U-251 = test system: U-251
NCI-H522 = test system: NCI-H522
M14 = test system: M14
HT-29 = test system: HT-29
Malme-3M = test system: Malme-3M
TK-10 = test system: TK-10
A498 = test system: A498
HOP-92 = test system: HOP-92
NCI-H460 = test system: NCI-H460
A549 = test system: A549
NCI/ADR-RES = test system: NCI/ADR-RES
Hs-578T = test system: Hs-578T
MDA-MB-231 = test system: MDA-MB-231
MDA-N = test system: MDA-N
BT-549 = test system: BT-549

SMILES	GI50 (786-0)	GI50 (SF-539)	GI50 (SNB-78)	GI50 (SK-MEL-5)	GI50 (EKVX)	GI50 (U-251)	GI50 (NCI-H522)	GI50 (M14)	GI50 (HT-29)	GI50 (Malme-3M)	GI50 (TK-10)	GI50 (A498)	GI50 (HOP-92)	GI50 (NCI-H460)	GI50 (A549)	GI50 (NCI/ADR-RES)	GI50 (Hs-578T)	GI50 (MDA-MB-231)	GI50 (MDA-N)	GI50 (BT-549)
O=C(c1cc(O)ccc1O)c1ccccc1C(Cl)(Cl)Cl	> 100 µM (inactive)	> 100 µM (inactive)	> 100 µM (inactive)	35.6 µM (inactive)	75.5 µM (inactive)	> 100 µM (inactive)	57.1 µM (inactive)	88.7 µM (inactive)	> 100 µM (inactive)	> 100 µM (inactive)	> 100 µM (inactive)	82.8 µM (inactive)	38.8 µM (inactive)	> 100 µM (inactive)	> 100 µM (inactive)	–	–	–	–	–
C[n+]1c2ccccc2c(CNc2ccc(S(=O)(=O)N=C(N)N)cc2)c2ccccc21	6.84 µM (inactive)	3.24 µM (inactive)	19.9 µM (inactive)	6.92 µM (inactive)	21 µM (inactive)	5.14 µM (inactive)	9.77 µM (inactive)	6.05 µM (inactive)	20.2 µM (inactive)	13.6 µM (inactive)	29.4 µM (inactive)	17.4 µM (inactive)	5.24 µM (inactive)	0.61 µM (active)	6.17 µM (inactive)	–	–	–	–	–
Clc1ccc(/C=C/c2csnn2)cc1	> 100 µM (inactive)	> 100 µM (inactive)	> 100 µM (inactive)	> 100 µM (inactive)	> 100 µM (inactive)	> 100 µM (inactive)	> 100 µM (inactive)	> 100 µM (inactive)	> 100 µM (inactive)	> 100 µM (inactive)	> 100 µM (inactive)	> 100 µM (inactive)	27.1 µM (inactive)	> 100 µM (inactive)	> 100 µM (inactive)	–	–	–	–	–
CC(=O)/C(C)=N/NC(=O)c1ccccc1O	> 10 µM (inactive)	> 10 µM (inactive)	> 10 µM (inactive)	95.1 µM (inactive)	> 10 µM (inactive)	> 10 µM (inactive)	> 100 µM (inactive)	> 10 µM (inactive)	> 10 µM (inactive)	> 10 µM (inactive)	> 10 µM (inactive)	47.9 µM (inactive)	> 10 µM (inactive)	> 10 µM (inactive)	> 10 µM (inactive)	> 100 µM (inactive)	> 100 µM (inactive)	> 100 µM (inactive)	> 100 µM (inactive)	> 100 µM (inactive)
CC(C)(C)c1ccc(Oc2ccc(C#N)c(C#N)c2)c(C(C)(C)C)c1	52.6 µM (inactive)	> 93.5 µM (inactive)	42.5 µM (inactive)	31.3 µM (inactive)	58.2 µM (inactive)	33.7 µM (inactive)	17.2 µM (inactive)	53 µM (inactive)	34.3 µM (inactive)	> 100 µM (inactive)	> 100 µM (inactive)	> 63.5 µM (inactive)	31.8 µM (inactive)	28.8 µM (inactive)	60.4 µM (inactive)	–	–	–	–	–
COc1cccc(NC(=O)CC(=O)N2N=C(N(CCC#N)c3ccc(Cl)cc3)CC2c2ccccc2)c1 (stereo not given)	> 100 µM (inactive)	> 100 µM (inactive)	> 100 µM (inactive)	> 100 µM (inactive)	> 100 µM (inactive)	> 100 µM (inactive)	> 100 µM (inactive)	> 100 µM (inactive)	> 100 µM (inactive)	> 100 µM (inactive)	> 100 µM (inactive)	> 100 µM (inactive)	> 100 µM (inactive)	> 100 µM (inactive)	> 100 µM (inactive)	–	–	–	–	–
